Reference: ChEMBL document CHEMBL5325412, “Privileged heterocycles for DNA-encoded library design and hit-to-lead optimization” (Eur J Med Chem, 2023)
Converted amounts (≈) assume the structure as drawn.

What was measured:
[1] = target: T1, Proteinase-activated receptor 2 (Homo sapiens, UniProt P55085); test: Antagonist activity at PAR2 (unknown origin) expressed in human 1321N1 cells; format: cell-based
T1 sequence (P55085 whole entry): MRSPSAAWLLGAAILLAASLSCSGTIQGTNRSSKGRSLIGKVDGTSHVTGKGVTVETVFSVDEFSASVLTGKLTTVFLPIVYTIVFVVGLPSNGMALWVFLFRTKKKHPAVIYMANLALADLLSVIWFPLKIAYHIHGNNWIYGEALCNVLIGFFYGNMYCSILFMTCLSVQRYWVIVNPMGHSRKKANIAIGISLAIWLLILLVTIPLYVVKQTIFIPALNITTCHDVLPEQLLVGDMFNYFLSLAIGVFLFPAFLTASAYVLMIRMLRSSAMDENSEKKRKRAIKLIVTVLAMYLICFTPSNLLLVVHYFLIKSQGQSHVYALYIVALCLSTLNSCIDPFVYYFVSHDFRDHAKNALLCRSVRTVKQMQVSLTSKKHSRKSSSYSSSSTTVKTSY

Bacillus subtilis = test: Antibacterial activity against Bacillus subtilis ATCC 23857 assessed as bacterial growth inhibition incubated for 16 hrs by broth dilution assay; format: functional
Escherichia coli = test: Antibacterial activity against Escherichia coli ATCC 25922 assessed as bacterial growth inhibition measured after 16 hrs by broth dilution assay; format: functional
[2] = Binding affinity to bacterial beta-lactamase OXA-48 expressed in Escherichia coli BL21 (DE3) using nitrocefin as substrate pre-incubated for 5 mins and measured for 20 mins by spectrometric analysis; parameters: species or system Bacteria
Albumin = Albumin (Homo sapiens, UniProt P02768); test: Binding affinity to human serum albumin by fluorescence polarization assay
Albumin, sequence (P02768 whole entry): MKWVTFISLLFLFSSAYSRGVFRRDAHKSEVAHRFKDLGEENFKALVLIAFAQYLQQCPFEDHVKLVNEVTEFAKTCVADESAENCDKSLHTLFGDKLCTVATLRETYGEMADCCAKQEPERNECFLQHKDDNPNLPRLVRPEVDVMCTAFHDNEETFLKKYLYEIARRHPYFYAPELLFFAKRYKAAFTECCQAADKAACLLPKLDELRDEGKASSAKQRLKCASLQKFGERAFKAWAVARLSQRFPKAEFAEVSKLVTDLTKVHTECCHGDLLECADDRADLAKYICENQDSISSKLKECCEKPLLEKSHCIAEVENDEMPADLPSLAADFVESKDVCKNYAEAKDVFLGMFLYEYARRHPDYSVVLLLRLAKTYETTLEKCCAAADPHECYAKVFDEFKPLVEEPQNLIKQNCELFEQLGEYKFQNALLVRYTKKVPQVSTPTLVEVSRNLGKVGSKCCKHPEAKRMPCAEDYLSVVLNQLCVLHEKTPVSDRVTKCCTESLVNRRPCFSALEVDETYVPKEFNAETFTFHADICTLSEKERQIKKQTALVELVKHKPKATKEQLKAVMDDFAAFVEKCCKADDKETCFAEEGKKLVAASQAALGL

[3] = Solubility of the compound; format: physicochemical
CREB-binding protein = CREB-binding protein (Homo sapiens, UniProt Q92793); test: Inhibition of N-terminal His-tagged CREBBP (unknown origin) expressed in Escherichia coli BL21 (DE3)
CREB-binding protein, sequence (Q92793 whole entry): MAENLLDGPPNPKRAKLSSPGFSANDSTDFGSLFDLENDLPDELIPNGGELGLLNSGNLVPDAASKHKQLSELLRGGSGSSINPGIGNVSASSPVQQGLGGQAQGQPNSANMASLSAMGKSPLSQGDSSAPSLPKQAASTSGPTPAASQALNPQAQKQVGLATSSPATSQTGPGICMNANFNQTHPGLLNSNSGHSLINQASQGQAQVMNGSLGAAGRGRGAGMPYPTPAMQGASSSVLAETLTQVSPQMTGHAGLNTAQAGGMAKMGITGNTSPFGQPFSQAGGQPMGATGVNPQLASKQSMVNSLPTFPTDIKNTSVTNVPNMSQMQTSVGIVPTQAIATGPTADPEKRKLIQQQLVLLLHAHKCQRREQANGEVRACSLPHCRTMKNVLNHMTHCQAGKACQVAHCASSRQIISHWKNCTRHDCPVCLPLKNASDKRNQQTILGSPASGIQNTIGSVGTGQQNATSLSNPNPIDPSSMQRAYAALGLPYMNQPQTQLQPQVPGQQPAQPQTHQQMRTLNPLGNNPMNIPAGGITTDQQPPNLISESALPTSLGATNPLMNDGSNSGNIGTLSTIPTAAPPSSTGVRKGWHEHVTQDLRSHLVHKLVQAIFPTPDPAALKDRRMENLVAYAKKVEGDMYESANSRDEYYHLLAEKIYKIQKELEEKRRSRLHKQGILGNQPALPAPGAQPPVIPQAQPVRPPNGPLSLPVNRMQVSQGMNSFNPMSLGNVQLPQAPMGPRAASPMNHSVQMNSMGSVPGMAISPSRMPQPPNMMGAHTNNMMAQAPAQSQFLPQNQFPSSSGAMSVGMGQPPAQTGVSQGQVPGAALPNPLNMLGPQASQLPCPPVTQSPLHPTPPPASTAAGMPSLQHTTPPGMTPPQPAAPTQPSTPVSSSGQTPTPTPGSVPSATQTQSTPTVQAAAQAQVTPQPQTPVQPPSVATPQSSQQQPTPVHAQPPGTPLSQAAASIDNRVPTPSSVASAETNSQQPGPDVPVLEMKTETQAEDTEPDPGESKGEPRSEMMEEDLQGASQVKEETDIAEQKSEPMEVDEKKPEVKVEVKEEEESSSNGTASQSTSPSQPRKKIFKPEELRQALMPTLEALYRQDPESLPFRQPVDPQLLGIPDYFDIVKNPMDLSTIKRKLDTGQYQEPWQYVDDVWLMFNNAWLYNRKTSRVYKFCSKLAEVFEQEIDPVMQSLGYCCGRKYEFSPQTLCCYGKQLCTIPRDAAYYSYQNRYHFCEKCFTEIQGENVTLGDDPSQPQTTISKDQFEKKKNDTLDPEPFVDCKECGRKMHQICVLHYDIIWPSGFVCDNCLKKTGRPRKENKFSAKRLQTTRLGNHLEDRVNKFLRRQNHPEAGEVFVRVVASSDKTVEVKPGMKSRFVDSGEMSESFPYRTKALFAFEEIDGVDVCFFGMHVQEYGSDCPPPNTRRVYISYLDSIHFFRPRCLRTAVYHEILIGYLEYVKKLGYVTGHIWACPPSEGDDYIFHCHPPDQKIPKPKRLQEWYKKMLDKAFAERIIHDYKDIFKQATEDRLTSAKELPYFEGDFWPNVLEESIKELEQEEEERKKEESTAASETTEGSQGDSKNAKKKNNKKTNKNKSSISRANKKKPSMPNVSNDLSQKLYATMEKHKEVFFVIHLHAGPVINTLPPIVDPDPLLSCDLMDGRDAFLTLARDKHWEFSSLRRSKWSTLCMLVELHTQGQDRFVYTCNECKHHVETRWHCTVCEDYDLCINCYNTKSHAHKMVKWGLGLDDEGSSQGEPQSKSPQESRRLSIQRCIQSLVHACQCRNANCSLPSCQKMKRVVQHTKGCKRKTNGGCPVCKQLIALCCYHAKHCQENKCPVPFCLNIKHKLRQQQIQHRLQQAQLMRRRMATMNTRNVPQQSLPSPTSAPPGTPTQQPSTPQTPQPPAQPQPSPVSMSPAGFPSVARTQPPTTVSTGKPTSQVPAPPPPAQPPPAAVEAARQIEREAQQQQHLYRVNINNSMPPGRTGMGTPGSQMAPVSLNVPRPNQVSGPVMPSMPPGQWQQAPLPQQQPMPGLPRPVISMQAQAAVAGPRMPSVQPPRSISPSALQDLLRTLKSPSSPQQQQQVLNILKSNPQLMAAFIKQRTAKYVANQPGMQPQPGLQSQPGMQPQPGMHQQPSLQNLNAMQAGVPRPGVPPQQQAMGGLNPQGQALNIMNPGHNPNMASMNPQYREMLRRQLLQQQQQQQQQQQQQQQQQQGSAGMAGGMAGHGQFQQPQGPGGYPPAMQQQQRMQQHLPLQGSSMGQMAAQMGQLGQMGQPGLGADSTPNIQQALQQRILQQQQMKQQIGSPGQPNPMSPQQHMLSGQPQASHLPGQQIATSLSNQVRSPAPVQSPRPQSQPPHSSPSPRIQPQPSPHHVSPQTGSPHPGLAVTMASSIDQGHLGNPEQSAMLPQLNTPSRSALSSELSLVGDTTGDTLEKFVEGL

[4] = Inhibition of MAPK p68 (unknown origin); parameters: species or system Homo sapiens
[5] = Inhibition of Hepatitis C virus genotype 1a NS4B; parameters: species or system Hepacivirus hominis
Carbonic anhydrase 9 = Carbonic anhydrase 9 (Homo sapiens, UniProt Q16790); test: Inhibition of human recombinant carbonic anhydrase IX
Prothrombin = Prothrombin (Homo sapiens, UniProt P00734); test: Binding affinity to thrombin (unknown origin) assessed as inhibition constant
[6] = target: T2, Poly [ADP-ribose] polymerase tankyrase-1 (Homo sapiens, UniProt O95271); test: Binding affinity to TNKS1 (unknown origin) assessed as dissociation constant
T2 sequence (O95271 whole entry): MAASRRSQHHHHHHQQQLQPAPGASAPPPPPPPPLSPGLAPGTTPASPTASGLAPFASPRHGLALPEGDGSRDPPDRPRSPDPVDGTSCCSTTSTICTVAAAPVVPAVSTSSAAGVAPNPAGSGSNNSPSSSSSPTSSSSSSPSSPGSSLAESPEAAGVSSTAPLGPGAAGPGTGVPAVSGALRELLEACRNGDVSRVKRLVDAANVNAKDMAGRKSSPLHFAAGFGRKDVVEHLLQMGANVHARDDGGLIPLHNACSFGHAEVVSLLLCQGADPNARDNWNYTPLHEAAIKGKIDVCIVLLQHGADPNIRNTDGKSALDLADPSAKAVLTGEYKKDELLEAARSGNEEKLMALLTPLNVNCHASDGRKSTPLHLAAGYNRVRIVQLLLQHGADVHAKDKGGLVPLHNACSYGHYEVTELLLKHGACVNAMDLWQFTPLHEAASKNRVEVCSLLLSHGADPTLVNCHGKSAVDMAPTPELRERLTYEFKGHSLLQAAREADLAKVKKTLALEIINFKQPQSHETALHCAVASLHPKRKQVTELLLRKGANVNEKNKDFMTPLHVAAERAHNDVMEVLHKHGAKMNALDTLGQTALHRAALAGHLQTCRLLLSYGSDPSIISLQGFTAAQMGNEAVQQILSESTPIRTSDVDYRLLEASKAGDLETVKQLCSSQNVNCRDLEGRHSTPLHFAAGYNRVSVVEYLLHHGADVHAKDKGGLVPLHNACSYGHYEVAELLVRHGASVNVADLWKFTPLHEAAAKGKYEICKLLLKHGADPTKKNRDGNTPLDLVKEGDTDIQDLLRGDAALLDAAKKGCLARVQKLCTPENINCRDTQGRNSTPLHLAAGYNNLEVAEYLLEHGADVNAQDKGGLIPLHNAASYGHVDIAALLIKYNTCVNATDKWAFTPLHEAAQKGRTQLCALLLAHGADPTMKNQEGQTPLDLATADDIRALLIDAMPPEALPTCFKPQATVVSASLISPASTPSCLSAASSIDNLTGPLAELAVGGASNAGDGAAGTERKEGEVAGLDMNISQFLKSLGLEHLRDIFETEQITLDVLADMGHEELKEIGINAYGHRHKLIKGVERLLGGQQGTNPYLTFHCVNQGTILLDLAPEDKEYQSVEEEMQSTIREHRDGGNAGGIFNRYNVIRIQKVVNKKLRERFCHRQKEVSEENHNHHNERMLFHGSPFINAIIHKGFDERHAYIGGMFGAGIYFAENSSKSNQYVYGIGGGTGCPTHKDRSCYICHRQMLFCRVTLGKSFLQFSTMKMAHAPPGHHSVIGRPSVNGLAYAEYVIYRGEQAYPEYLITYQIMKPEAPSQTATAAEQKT

[7] = target: T3, 2',5'-phosphodiesterase 12 (Homo sapiens, UniProt Q6L8Q7); test: Binding affinity to PDE12 (unknown origin) (17 to 609 residues) assessed as inhibition constant by AMP-glo reagent based assay
T3 sequence (Q6L8Q7 whole entry): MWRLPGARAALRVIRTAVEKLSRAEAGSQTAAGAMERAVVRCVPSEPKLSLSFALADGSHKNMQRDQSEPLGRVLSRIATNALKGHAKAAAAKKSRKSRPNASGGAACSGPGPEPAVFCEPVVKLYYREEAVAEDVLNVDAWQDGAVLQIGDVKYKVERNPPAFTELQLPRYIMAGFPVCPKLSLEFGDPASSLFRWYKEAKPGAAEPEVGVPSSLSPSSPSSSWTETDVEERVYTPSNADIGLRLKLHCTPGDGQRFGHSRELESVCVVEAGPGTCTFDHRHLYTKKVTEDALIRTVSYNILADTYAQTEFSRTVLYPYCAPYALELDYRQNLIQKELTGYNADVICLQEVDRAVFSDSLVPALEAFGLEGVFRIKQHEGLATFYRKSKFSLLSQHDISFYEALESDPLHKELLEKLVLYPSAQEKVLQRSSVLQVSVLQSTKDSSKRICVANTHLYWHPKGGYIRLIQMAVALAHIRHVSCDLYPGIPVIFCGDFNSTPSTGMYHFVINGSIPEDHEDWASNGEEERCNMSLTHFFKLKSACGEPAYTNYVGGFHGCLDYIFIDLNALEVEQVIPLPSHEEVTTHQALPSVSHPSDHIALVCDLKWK

Quadruplex DNA [8] = test: Binding affinity to c-MYC G4 quadruplex DNA (unknown origin) assessed as dissociation constant by fluorescence titration based analysis; format: nucleic-acid assay
Autotaxin = Autotaxin (Homo sapiens, UniProt Q13822); test: Inhibition of ATX (unknown origin)
[9] = Binding affinity to Peptoid-inspired conformationally constrained oligomer (unknown origin) assessed as dissociation constant
[10] = target: Mitogen-activated protein kinase 10 (Homo sapiens, UniProt P53779); test: Binding affinity to JNK3 (unknown origin) assessed as inhibition constant
Mitogen-activated protein kinase 10, sequence (P53779 whole entry): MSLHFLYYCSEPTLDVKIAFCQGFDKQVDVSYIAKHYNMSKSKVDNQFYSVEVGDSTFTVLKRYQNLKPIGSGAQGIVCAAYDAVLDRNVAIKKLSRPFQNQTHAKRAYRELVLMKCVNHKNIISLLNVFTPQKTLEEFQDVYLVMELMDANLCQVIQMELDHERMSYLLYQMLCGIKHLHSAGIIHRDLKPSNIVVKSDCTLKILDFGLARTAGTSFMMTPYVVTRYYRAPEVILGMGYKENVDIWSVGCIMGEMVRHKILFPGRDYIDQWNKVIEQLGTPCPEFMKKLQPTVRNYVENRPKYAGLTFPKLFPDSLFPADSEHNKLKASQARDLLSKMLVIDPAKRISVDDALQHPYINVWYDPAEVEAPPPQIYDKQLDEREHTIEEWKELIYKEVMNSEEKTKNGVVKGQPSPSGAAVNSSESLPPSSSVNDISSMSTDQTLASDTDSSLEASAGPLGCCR

Quadruplex DNA [11] = test: Binding affinity to c-MYC G4- quadruplex DNA Pu22 (unknown origin) assessed as inhibition constant by SPR analysis; format: nucleic-acid assay
[12] = target: Mitogen-activated protein kinase 8 (Homo sapiens, UniProt P45983); test: Binding affinity to JNK1 (unknown origin) assessed as dissociation constant
Mitogen-activated protein kinase 8, sequence (P45983 whole entry): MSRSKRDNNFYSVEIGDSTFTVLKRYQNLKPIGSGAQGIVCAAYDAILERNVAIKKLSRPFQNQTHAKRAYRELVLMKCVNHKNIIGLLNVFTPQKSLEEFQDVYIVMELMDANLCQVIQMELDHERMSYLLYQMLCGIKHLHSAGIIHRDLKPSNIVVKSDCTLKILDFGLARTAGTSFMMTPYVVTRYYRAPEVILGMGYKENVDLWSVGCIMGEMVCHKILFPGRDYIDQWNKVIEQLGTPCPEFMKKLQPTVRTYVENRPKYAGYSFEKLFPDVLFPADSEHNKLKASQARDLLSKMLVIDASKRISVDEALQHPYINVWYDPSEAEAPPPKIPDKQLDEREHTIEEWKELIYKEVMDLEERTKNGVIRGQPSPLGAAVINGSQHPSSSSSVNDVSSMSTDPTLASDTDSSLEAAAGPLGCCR

Compound `CC(C1CCCCC1)n1c(-c2cc3c(cc2Br)OCO3)nc2cc(C(=O)Nc3ccc(C#N)cc3)ccc21` (stereo unspecified) has an IC50 [1] of 0.023 µM.
In the case of `O=C(O)c1cn(C2CC2)c2nc(N3CCNCC3)c(F)cc2c1=O`, the MIC (Bacillus subtilis) is reported as 0.063 µg/mL (≈ 0.19 µM) and the MIC (Escherichia coli) is reported as 0.016 µg/mL (≈ 0.0481 µM).
Compound `CCOc1ccccc1N1CCN(c2ncnc(N3CCC(C(=O)O)CC3)n2)CC1` has a Ki [2] of 0.53 µM.
Compound `NCCOCCOCCNC(=O)c1cccc(NC(=O)OC2CCN(C(=O)c3ccc(-c4nc5ccccc5[nH]4)cc3)CC2)c1` has a Ki (Albumin) of 0.0497 µM and a solubility [3] of 54 µg/mL (≈ 87.8 µM).
Compound `C[C@@H]1CC(=O)Cc2cccc(C(=O)NCCNC(=O)CSC(=S)c3ccccc3)c2N1` has an IC50 (CREB-binding protein) of 17 µM.
In the case of `COc1ccc(Nc2nc(NCCc3ccccc3F)nc(Nc3ccc4ncccc4c3)n2)cc1OC`, the IC50 [4] is reported as 2.1 µM.
Compound `O=C(c1ccc2[nH]ccc2c1)N1CCC2(CCCN(c3ncc(-c4ccccc4)c(-c4ccc(Cl)cc4)n3)C2)CC1` has an IC50 [5] of 0.0421 µM.
With `CNC(=O)[C@@H]1[C@@H](c2ccc(-c3ccc(S(N)(=O)=O)cc3)cc2)CN1Cc1ccc(O)c2ncccc12` the IC50 (Carbonic anhydrase 9) was 0.0201 µM.
With `CNC(=O)[C@@H]1CN(C(=O)[C@@H](Cc2ccccc2CNC(=N)N)NC(=O)N(C)C2CCOc3ccccc32)C[C@H]1c1ccc(OC)cc1` (stereo partly specified) the Ki (Prothrombin) was 0.001 µM.
`Cc1cn(CC(=O)N[C@@H](CCCCn2cc(-c3ccncc3F)nn2)C(N)=O)c(=O)[nH]c1=O` showed a Kd [6] of 0.015 µM.
Compound `Cn1c(-c2c[nH]c3cc(C#N)ccc23)nc2ccc(C(=O)N3CCOC(c4ccccc4)C3CO)cc21` (stereo unspecified) has a Ki [7] of 0.0175 µM.
`CNC(=O)CN(Cc1ccc(OCC(=O)NCc2nc3ccccc3c(=O)[nH]2)c(Cl)c1)Cc1cccn1C` gave a Kd (Quadruplex DNA [8]) of 1.05 µM.
Compound `O=C(c1ccccc1)N1CCC2(CCCN(c3ncc(-c4ccccc4)c(-c4ccc(Cl)cc4)n3)C2)CC1` has an IC50 [5] of 0.0458 µM.
Work on `NC(=O)CN1CN(c2ccccc2)C2(CCN(C(=O)CCc3ccc(Cl)cc3Cl)CC2)C1=O` yielded an IC50 (Autotaxin) of 2.8 µM.
For `NC(=O)c1coc(CN(Cc2ccc3c(c2)OCO3)C(=O)c2coc(CN(Cc3ccc4c(c3)OCO4)C(=O)c3ncc(CCl)o3)n2)n1`, the Kd [9] was 0.03 µM.
With `CCn1c(-c2ccccc2-c2ccc(C)cc2C)nc2cc(C(=O)NC)ccc21` the Ki [10] was 0.0012 µM.
In the case of `Cc1cnccc1N1CCN(c2nccc3c2nc(-c2c[nH]c4ccncc24)n3C)CC1`, the Ki (Quadruplex DNA [11]) is reported as 0.328 µM.
Work on `CCOc1ccccc1N1CCN(c2ncnc(N3CCC(S(=O)(=O)O)CC3)n2)CC1` yielded a Ki [2] of 0.26 µM.
In the case of `O=C(/C=C/C(=O)c1ccc(F)c(F)c1)NCCOCCOCCNC(=O)c1cccnc1Oc1ccccc1`, the Kd [12] is reported as 1 µM.
